# Measured values as given in patent US7915423B2, “Solid states of pantoprazole sodium, processes for preparing them and processes for preparing known pantoprazole sodium hydrates” (Teva Pharmaceutical Industries, Ltd., priority 2002, dated 2011).
# Key:
# [1] = Thermal interconversion of solid forms on drying, followed by PXRD; type: physicochemical
# Description: The PXRD patterns depicted in the accompanying figures were obtained on a Scintag X-Ray powder diffractometer model X'TRA with a copper tube solid state detector. A round standard aluminum sample holder with round zero background quartz plate was used. Scanning parameters: Range: 2-40°2θ: continuous scan, Rate: 3 deg./min.
# The mixture was stirred overnight at ambient temperature, giving the crystals. The crystals were filtered on filter paper.
# Pantoprazole sodium Form V was dried at 65° C. under ambient pressure for two hours.
# The solution was stirred overnight without precipitation. The solution was allowed to stand overnight in an opened flask with precipitation of the product. The crystals were filtered and allowed to stand at room temperature open to the air for a short period of time but were not otherwise dried.
# The pantoprazole sodium Form VI was then dried at 50° C. under a 10 mm Hg vacuum overnight. The resulting powder was analyzed by PXRD and found to be amorphous.
# [2] = Solubility of pantoprazole sodium in alcohols; type: physicochemical
# Excerpt: Accordingly, initial investigation focused on how this solvate could be produced by crystallization from a solution rather than a heterogeneous technique. We discovered that combining free pantoprazole and solid sodium hydroxide in 1-butanol and crystallization of the resulting pantoprazole sodium salt yielded Form V. The presence of minor amounts of water originating from the use of non-anhydrous 1-butanol, a hydrated starting material or water adsorbed on the equipment used for crystallization has no effect on the crystal form obtained. […] Again, conditions depleted of water, yet not rigorously anhydrous were investigated. We discovered that Form X can be obtained by crystallization from a solution formed by combining free pantoprazole with sodium hydroxide in 1-propanol.
# [3] = cited from earlier work
# [4] = Thermal interconversion of solid forms on drying, followed by PXRD; type: physicochemical; settings: 100° C. under 10 mm vacuum overnight
# [5] = 50° C. under 10 mm Hg vacuum overnight
# [6] = 65° C. under ambient pressure for two hours
structure (smiles),measurement,setting,value
"COc1ccnc(C[S+]([O-])c2nc3ccc(OC(F)F)cc3[nH]2)c1OC (stereo not shown) [Form VI, pantoprazole sodium]",solid form obtained after drying (PXRD),[1]; [5],amorphous
"COc1ccnc(C[S+]([O-])c2nc3ccc(OC(F)F)cc3[nH]2)c1OC (stereo not shown) [Form XIII, pantoprazole sodium]",solid form obtained after further drying,[1]; 65° C. for another two hours under ambient pressure (Form XIII obtained from Form V),partially amorphous
same,solid form obtained after drying (PXRD),[1]; [6],amorphous pantoprazole sodium
"COc1ccnc(C[S+]([O-])c2nc3ccc(OC(F)F)cc3[nH]2)c1OC (stereo not shown) [Form XX, pantoprazole sodium]",dehydration on drying,[1]; mild conditions such as 50° C. at 10 mm Hg vacuum,without causing significant dehydration
"COc1ccnc(C[S+]([O-])c2nc3ccc(OC(F)F)cc3[nH]2)c1OC (stereo not shown) [Pantoprazole sodium, pantoprazole sodium]",solubility in 1-butanol,[2]; 1-butanol,appreciably soluble
same,solubility in 1-propanol,[2]; 1-propanol,high solubility
"COc1ccnc(C[S+]([O-])c2nc3ccc(OC(F)F)cc3[nH]2)c1OC (stereo not shown) [Form V, pantoprazole sodium]",solid form obtained after drying (PXRD),[1]; [6],pantoprazole sodium Form XIII
same,solid form obtained after drying (PXRD),"[1]; 65° C. under ambient pressure for two hours, listed as pantoprazole sodium 1-butanol solvate",pantoprazole sodium Form XIII
"COc1ccnc(C[S+]([O-])c2nc3ccc(OC(F)F)cc3[nH]2)c1OC (stereo not shown) [Form XII, pantoprazole sodium]",solid form obtained after drying (PXRD),[1]; [6],pantoprazole sodium Form XIII
same,solid form obtained after drying (PXRD),"[1]; 65° C. under ambient pressure for two hours, listed as pantoprazole sodium 2-methylpropanol solvate",pantoprazole sodium Form XIII
"COc1ccnc(C[S+]([O-])c2nc3ccc(OC(F)F)cc3[nH]2)c1OC (stereo not shown) [Form XVIII, pantoprazole sodium]",solid form by PXRD as wet sample and after drying,[1]; drying at 50° C.,Form XVIII
"COc1ccnc(C[S+]([O-])c2nc3ccc(OC(F)F)cc3[nH]2)c1OC (stereo not shown) [Form XIV, pantoprazole sodium]",solid form obtained after drying (PXRD),[1]; [5],pantoprazole sodium Form XV
"COc1ccnc(C[S+]([O-])c2nc3ccc(OC(F)F)cc3[nH]2)c1OC (stereo not shown) [monohydrate, pantoprazole sodium]",solubility in acetone,[3],dissolves with difficulty
"COc1ccnc(C[S+]([O-])c2nc3ccc(OC(F)F)cc3[nH]2)c1OC (stereo not shown) [Pantoprazole sodium sesquihydrate, pantoprazole sodium]",solid form obtained after drying,[4],amorphous pantoprazole sodium
"COc1ccnc(C[S+]([O-])c2nc3ccc(OC(F)F)cc3[nH]2)c1OC (stereo not shown) [Form VIII, pantoprazole sodium]",solid form obtained after drying,"[1]; 50° C. under 10 mm Hg vacuum, time not given",pantoprazole sodium Form I
"COc1ccnc(C[S+]([O-])c2nc3ccc(OC(F)F)cc3[nH]2)c1OC (stereo not shown) [Form IV, pantoprazole sodium]",solid form obtained after drying (PXRD),[1]; [5],pantoprazole sodium Form I
